Assay results published in patent US20070128731A1, “Methods for preparing crystalline rapamycin and for measuring crystallinity of rapamycin compounds using differential scanning calorimetry” (Wyeth, priority 2005, published 2007).

Test: Storage stability of crystalline rapamycin followed by DSC
Format: physicochemical
Procedure: In one example, the crystallinity is maintained over a period of about 2 months. In another example, the crystallinity is maintained over a period of about 4 months. In a further example, the crystallinity is maintained up to about 60% relative humidity.
In this example, samples containing rapamycin (Table 3) were analyzed by DSC and optical microscopy. The morphology and approximate particle size were determined using optical microscopy. A standard DSC sample ramp rate of 10° C./min and a hermetically sealed aluminum pan were utilized.
Sample 2 contained crystalline rapamycin and about 2 to about 3% of oxidative/hydrolysis degradation impurities and was prepared using the process of Example 3. A portion of the batch was maintained at 25° C. and 60% relative humidity for 2 months.
Sample 3 contains crystalline rapamycin and about 2 to about 3% of oxidative/hydrolysis degradation impurities and was prepared using the process of example 3. A portion of the batch was subjected to 25° C. and 60% relative humidity for 4 months.

effect of low levels of impurities on DSC melting temperature over time (about 2 to about 3% oxidative/hydrolysis degradation impurities, 25° C. and 60% relative humidity, 2 and 4 months): do not affect | crystallinity on storage (period up to 4 months at up to about 60% relative humidity): substantially maintained | change in the DSC melting endotherm on storage (stored for up to 4 months at up to about 60% relative humidity): minimal change
SMILES: CO[C@H]1C[C@@H]2CC[C@@H](C)[C@@](O)(O2)C(=O)C(=O)N2CCCC[C@H]2C(=O)O[C@H]([C@H](C)C[C@@H]2CC[C@@H](O)[C@H](OC)C2)CC(=O)[C@H](C)/C=C(\C)[C@@H](O)[C@@H](OC)C(=O)[C@H](C)C[C@H](C)/C=C/C=C/C=C/1C [rapamycin]
